# Assay results from patent publication US20130116263A1, “PAK INHIBITORS FOR THE TREATMENT OF CELL PROLIFERATIVE DISORDERS” (AFRAXIS, INC., priority 2011, published 2013).
# Where two headings read alike, the source gives them in different places.
# Experiments:
# p-MEK1(S298) = test: In vitro cellular HTRF assay for p-MEK1(S298); type: cell-based; conditions: cell line RT4-D6P2T, read-out: pMEK1(S298)
# Description: (§1) Some of the compounds for treatment of cancer are subject to in vitro cellular HTRF assay for p-PAK1(S144) and p-MEK1(S298). The cell line is RT4-D6P2T.
# p-PAK1(S144) = test: In vitro cellular HTRF assay for p-PAK1(S144); type: cell-based; conditions: cell line RT4-D6P2T, read-out: pPAK1(S144)
# Description: as §1
# PAK1 = PAK1 (Homo sapiens, UniProt Q13153); test: Additional in vitro PAK1 inhibition assay at ATP 10 uM and 1 mM; type: biochemical
# Method: (§2) Similar in vitro PAK1 and PAK-4 inhibition assays are conducted in compounds for the treatment of cancer, but under ATP concentrations of 10 uM and 1 mM.
# PAK4 = PAK4 (Homo sapiens, UniProt O96013); test: Additional in vitro PAK-4 inhibition assay at ATP 10 uM and 1 mM; type: biochemical; conditions: 10 μM ATP; read-out: PAK4 IC50 (10 μM ATP)
# Method: as §2
# [1] = 10 μM ATP, read-out: PAK1 IC50 (10 μM ATP)
# [2] = 1 mM ATP, read-out: PAK1 IC50 (1 mM ATP)
# PAK4, sequence (O96013 whole entry): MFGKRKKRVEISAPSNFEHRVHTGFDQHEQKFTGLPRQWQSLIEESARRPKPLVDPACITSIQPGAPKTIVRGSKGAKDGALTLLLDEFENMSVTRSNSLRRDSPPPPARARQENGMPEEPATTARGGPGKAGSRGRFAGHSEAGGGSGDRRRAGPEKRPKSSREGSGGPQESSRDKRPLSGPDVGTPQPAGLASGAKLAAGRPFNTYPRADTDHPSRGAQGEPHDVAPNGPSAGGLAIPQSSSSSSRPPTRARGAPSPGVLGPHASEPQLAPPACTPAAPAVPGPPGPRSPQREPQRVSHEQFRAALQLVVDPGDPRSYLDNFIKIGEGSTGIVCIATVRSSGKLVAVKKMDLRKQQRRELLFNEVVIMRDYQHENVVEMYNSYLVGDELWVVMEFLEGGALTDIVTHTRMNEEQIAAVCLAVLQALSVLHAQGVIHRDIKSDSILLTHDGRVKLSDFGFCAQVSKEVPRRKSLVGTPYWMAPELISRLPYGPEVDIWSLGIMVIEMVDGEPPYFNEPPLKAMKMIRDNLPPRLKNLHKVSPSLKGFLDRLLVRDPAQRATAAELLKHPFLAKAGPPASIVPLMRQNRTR
# PAK1, sequence (Q13153 whole entry): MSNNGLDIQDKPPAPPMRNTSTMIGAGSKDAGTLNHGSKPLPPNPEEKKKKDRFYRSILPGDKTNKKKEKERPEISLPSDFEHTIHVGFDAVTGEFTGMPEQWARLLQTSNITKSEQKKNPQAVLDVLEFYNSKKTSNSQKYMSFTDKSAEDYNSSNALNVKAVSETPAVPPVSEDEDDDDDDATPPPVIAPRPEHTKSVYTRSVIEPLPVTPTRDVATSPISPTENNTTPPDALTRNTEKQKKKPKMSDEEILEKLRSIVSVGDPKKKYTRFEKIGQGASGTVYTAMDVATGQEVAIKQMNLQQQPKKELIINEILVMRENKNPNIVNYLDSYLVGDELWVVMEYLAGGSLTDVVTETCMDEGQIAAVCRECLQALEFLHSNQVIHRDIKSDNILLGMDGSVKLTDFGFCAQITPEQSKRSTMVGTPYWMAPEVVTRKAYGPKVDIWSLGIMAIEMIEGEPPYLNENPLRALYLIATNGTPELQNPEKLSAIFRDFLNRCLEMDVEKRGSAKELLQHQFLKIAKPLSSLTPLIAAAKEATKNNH
Compound,IC50 (p-MEK1(S298)) [nM],IC50 (p-PAK1(S144)) [nM],IC50 (PAK1; [1]) [nM],IC50 (PAK1; [2]) [nM],IC50 (PAK4) [nM]
CCn1c(=O)c(-c2ccc(-c3cccc(C)n3)cc2Cl)cc2cnc(N[C@H]3CC[C@H](CN(C)C)CC3)nc21,500 to 5000,500 to 5000,,,
Cc1cncc(-c2ccc(-c3cc4cnc(N[C@@H]5CCOC5)nc4n(CCCN)c3=O)c(Cl)c2)n1 [drawing 384],500 to 5000,500 to 5000,,,
CCn1c(=O)c(-c2ccc(-c3cncc(C)n3)cc2Cl)cc2cnc(NC3CCOCC3)nc21 [drawing 391],500 to 5000,50 to 500,,,
CCn1c(=O)c(-c2ccc(-c3cncc(C)n3)cc2Cl)cc2cnc(N[C@H]3CCOC3)nc21 [drawing 389],> 5000,500 to 5000,,,
Cc1nc(-c2ccc(-c3cc4cnc(NC5CCOCC5)nc4n(CC4CCNCC4)c3=O)c(Cl)c2)no1 [drawing 396],500 to 5000,50 to 500,,,
CCn1c(=O)c(-c2ccc(-c3nccnc3C)cc2Cl)cc2cnc(NC3CCOC(C)(C)C3)nc21 (stereo not shown) [drawing 385],500 to 5000,500 to 5000,,,
Cc1nc(-c2ccc(-c3cc4cnc(NC5CCOCC5)nc4n(CC(=O)N4CCC(CN)CC4)c3=O)c(Cl)c2)no1 [drawing 381],> 5000,,,,
CCn1c(=O)c(-c2ccc(-c3cncc(C)n3)cc2Cl)cc2cnc(NCCC3CCN(C)CC3)nc21 [drawing 390],50 to 500,50 to 500,,,
CCn1c(=O)c(-c2ccc(-c3cccnc3F)cc2Cl)cc2cnc(NC3CCOCC3)nc21 [drawing 392],500 to 5000,500 to 5000,,,
CCn1c(=O)c(-c2ccc(-c3noc(C)n3)cc2Cl)cc2cnc(NC3COC4(CCCC4)C3)nc21 (stereo not shown),,,500 to 5000,≥ 5000,500 to 5000
Cc1nc(-c2ccc(-c3cc4cnc(N[C@H]5C[C@@H]5C)nc4n(CC4CCNCC4)c3=O)c(Cl)c2)no1,,,< 50,500 to 5000,≥ 5000
CCn1c(=O)c(-c2ccc(-c3cncc(C)n3)cc2Cl)cc2cnc(NCC3CCC(N)CC3)nc21 (stereo not shown) [drawing 383],500 to 5000,50 to 500,,,
CCn1c(=O)c(-c2ccc(-c3noc(C)n3)cc2Cl)cc2cnc(NCCCNC(C)=O)nc21,,,500 to 5000,≥ 5000,≥ 5000
CCn1c(=O)c(-c2ccc(-c3noc(C)n3)cc2Cl)cc2cnc(NCc3ccccn3)nc21,,,500 to 5000,≥ 5000,≥ 5000
Cc1nc(-c2ccc(-c3cc4cnc(NC5CCOCC5)nc4n(CC(=O)N4CCC(CN)CC4)c3=O)c(Cl)c2)no1 [drawing 352],,,< 50,≥ 5000,≥ 5000
CCNc1ncc2cc(-c3ccc(-c4noc(C)n4)cc3Cl)c(=O)n(CC)c2n1,,,500 to 5000,≥ 5000,≥ 5000
CCN1CCC(CCNc2ncc3cc(-c4ccc(-c5noc(C)n5)cc4Cl)c(=O)n(CC)c3n2)CC1,,,50 to 500,500 to 5000,≥ 5000
Cc1nc(-c2ccc(-c3cc4cnc(NC5CCOCC5)nc4n(CC(=O)N4CCCC(CN)C4)c3=O)c(Cl)c2)no1 (stereo not shown),,,50 to 500,≥ 5000,≥ 5000
Cc1nc(-c2ccc(-c3cc4cnc(NC5CCOCC5)nc4n(CC(=O)NC4CCCNC4)c3=O)c(Cl)c2)no1 (stereo not shown),,,50 to 500,≥ 5000,≥ 5000
Cc1nc(-c2ccc(-c3cc4cnc(NC5CCOCC5)nc4n(CCC4CCNCC4)c3=O)c(Cl)c2)no1 [drawing 378],500 to 5000,,,,
CCO[C@H]1COC[C@@H]1Nc1ncc2cc(-c3ccc(-c4noc(C)n4)cc3Cl)c(=O)n(CC)c2n1,,,500 to 5000,≥ 5000,≥ 5000
Cc1nc(-c2ccc(-c3cc4cnc(NC5CCOCC5)nc4n(C4CCOCC4)c3=O)c(Cl)c2)no1,,,50 to 500,≥ 5000,≥ 5000
CCn1c(=O)c(-c2ccc(-c3noc(C)n3)cc2Cl)cc2cnc(NCCCOC)nc21,,,500 to 5000,≥ 5000,≥ 5000
Cc1nc(-c2ccc(-c3cc4cnc(NC5CCOCC5)nc4n(CC4CCN(C)CC4)c3=O)c(Cl)c2)no1,,,50 to 500,≥ 5000,≥ 5000
Cc1nc(-c2ccc(-c3cc4cnc(NC5CCOCC5)nc4n(C4CCN(C(=O)CN)CC4)c3=O)c(Cl)c2)no1,,,50 to 500,≥ 5000,≥ 5000
CN(C)C[C@@H](NC(=O)N1Cc2c(Nc3ncnc4sccc34)n[nH]c2C1(C)C)c1ccccc1,500 to 5000,50 to 500,,,
Cc1nc(-c2ccc(-c3cc4cnc(NC5CCOCC5)nc4n(CC(=O)NC4CCNC4)c3=O)c(Cl)c2)no1 (stereo not shown) [drawing 387],> 5000,,,,
CCCCNc1ncc2cc(-c3ccc(-c4noc(C)n4)cc3Cl)c(=O)n(CC)c2n1,,,500 to 5000,≥ 5000,≥ 5000
Cc1nc(-c2ccc(-c3cc4cnc(NC5CCOCC5)nc4n(CC(=O)NC4CCNCC4)c3=O)c(Cl)c2)no1,,,500 to 5000,≥ 5000,≥ 5000

# The next lines start with the values.
IC50 (p-MEK1(S298)) [nM],IC50 (p-PAK1(S144)) [nM],IC50 (PAK1; [1]) [nM],IC50 (PAK1; [2]) [nM],IC50 (PAK4) [nM],Compound
500 to 5000,50 to 500,,,,Cc1nc(-c2ccc(-c3cc4cnc(NC5CCOCC5)nc4n(Cc4ccc(CN)cc4)c3=O)c(Cl)c2)no1 [drawing 397]
500 to 5000,50 to 500,,,,Cc1nc(-c2ccc(-c3cc4cnc(NC5CCOCC5)nc4n(Cc4cccc(CN)c4)c3=O)c(Cl)c2)no1 [drawing 379]
,,50 to 500,≥ 5000,≥ 5000,CCn1c(=O)c(-c2ccc(-c3noc(C)n3)cc2Cl)cc2cnc(NC3COC3)nc21
,,50 to 500,500 to 5000,≥ 5000,Cc1nc(-c2ccc(-c3cc4cnc(NC5CCOCC5)nc4n(Cc4c(F)cccc4C(F)(F)F)c3=O)c(Cl)c2)no1
,,< 50,50 to 500,≥ 5000,Cc1nc(-c2ccc(-c3cc4cnc(NC5CCOCC5)nc4n(Cc4cccc(CCN)c4)c3=O)c(Cl)c2)no1 [drawing 339]
,,< 50,500 to 5000,≥ 5000,Cc1nc(-c2ccc(-c3cc4cnc(NC5CC5)nc4n(Cc4cccc(CN)c4)c3=O)c(Cl)c2)no1
50 to 500,50 to 500,,,,Cc1nc(-c2ccc(-c3cc4cnc(NC5CCOCC5)nc4n(Cc4cccc(CCN)c4)c3=O)c(Cl)c2)no1 [drawing 395]
,,< 50,50 to 500,≥ 5000,Cc1nc(-c2ccc(-c3cc4cnc(NC5CCOCC5)nc4n(Cc4ccc(CN)cc4)c3=O)c(Cl)c2)no1 [drawing 341]
,,50 to 500,≥ 5000,≥ 5000,CCn1c(=O)c(-c2ccc(-c3noc(C)n3)cc2Cl)cc2cnc(NC3CC3)nc21
> 5000,500 to 5000,,,,Cc1nc(-c2ccc(-c3cc4cnc(NC5CCOCC5)nc4n(CC(=O)NCc4ccncc4)c3=O)c(Cl)c2)no1 [drawing 388]
,,500 to 5000,≥ 5000,≥ 5000,CCn1c(=O)c(-c2ccc(-c3noc(C)n3)cc2Cl)cc2cnc(N[C@H]3COC[C@H]3O)nc21
,,≥ 5000,≥ 5000,≥ 5000,CCn1c(=O)c(-c2ccc(-c3noc(C)n3)cc2Cl)cc2cnc(NC3CCNC3=O)nc21 (stereo not shown)
,,< 50,500 to 5000,≥ 5000,Cc1nc(-c2ccc(-c3cc4cnc(NC5CCNC(=O)C5)nc4n(Cc4c(F)cccc4C(F)(F)F)c3=O)c(Cl)c2)no1 (stereo not shown) [drawing 354]
> 5000,500 to 5000,,,,Cc1nc(-c2ccc(-c3cc4cnc(NC5CCNC(=O)C5)nc4n(Cc4c(F)cccc4C(F)(F)F)c3=O)c(Cl)c2)no1 (stereo not shown) [drawing 382]
,,500 to 5000,500 to 5000,500 to 5000,CCn1c(=O)c(-c2ccc(-c3noc(C)n3)cc2Cl)cc2cnc(NC3CC3c3ccccc3)nc21 (stereo not shown)
500 to 5000,50 to 500,,,,Cc1nc(-c2ccc(-c3cc4cnc(NC5CCOCC5)nc4n(Cc4ccc(CCN)cc4)c3=O)c(Cl)c2)no1 [drawing 394]
,,50 to 500,≥ 5000,≥ 5000,Cc1nc(-c2ccc(-c3cc4cnc(NC5CCOCC5)nc4n(-c4ccccc4)c3=O)c(Cl)c2)no1
,,< 50,500 to 5000,≥ 5000,Cc1nc(-c2ccc(-c3cc4cnc(NC5CCOCC5)nc4n(Cc4cccc(OCCN)c4)c3=O)c(Cl)c2)no1 [drawing 344]
,,< 50,50 to 500,≥ 5000,Cc1nc(-c2ccc(-c3cc4cnc(NC5CCOCC5)nc4n(Cc4cccc(CN)c4)c3=O)c(Cl)c2)no1 [drawing 342]
500 to 5000,500 to 5000,,,,Cc1nc(-c2ccc(-c3cc4cnc(NC5CCOCC5)nc4n(Cc4cccc(OCCN)c4)c3=O)c(Cl)c2)no1 [drawing 380]
,,< 50,500 to 5000,≥ 5000,Cc1nc(-c2ccc(-c3cc4cnc(NC5CCOCC5)nc4n(Cc4ccc(CCN)cc4)c3=O)c(Cl)c2)no1 [drawing 338]
